Experiments:
[1] = test system: norepinephrine and dopamine in the hippocampus; assay: Hippocampal catecholamine measurements (HPLC-ECD); type: in vivo, mice; details: AICAR 1-2 mM daily for 10 days
Procedure: Control mice received food ad-libitum. Diet-restricted mice received a diet of 57 kCal/week/mouse (2.16 g/day/mouse) as 60% of the requirement, or 38 kCal/week/mouse (1.44 g/day/mouse) for 40%/DR. DR was carried out for 10 days. Behavioral test was performed using the eight-arm spatial maze during the second week of experiment. During the behavioral tests, half of the animals in each group were injected intraperitoneally (i.p) with AICAR (1-2 mM equal to 258-516 mg/kg) or leptin (1 mg/kg) and the other half with saline. Mice were sacrificed by decapitation after the behavioral tests and the hippocampi were frozen at -70° C. Catecholamines were measured as described previously ([…] et al (1996), Brain Res. 732, 133-144. The assays for dopamine and NE were performed by HPLC separation and detection using HPLC-ECD. Values are presented as a concentration (ng/mg tissue).

mice = assay: Eight-arm maze, mice ad libitum or diet restricted; type: in vivo
Procedure: Control mice received food ad-libitum. Diet-restricted mice received a diet of 57 kCal/week/mouse (2.16 g/day/mouse) as 60% of the requirement, or 38 kCal/week/mouse (1.44 g/day/mouse) for 40%/DR. DR was carried out for 10 days. Behavioral test was performed using the eight-arm spatial maze during the second week of experiment. […] Mice were sacrificed by decapitation after the behavioral tests and the hippocampi were frozen at −70° C. The animals were placed in an eight-arm maze, which is a scaled-down version of that developed for rats (Randt et al, (1971) Science 172, 489-499; Ziv et al (1994) Neuroscience Lett, 170, 136-140). […] The mice were tested until they made entries into all eight arms or until they completed 24 entries, whichever came first. […] Maze performance was calculated each day for five consecutive days. Results were presented as area under the curve (AUC) utilizing the formula: (day 2+day 3+day 4+day 5)−4*(day 1).

[2] = test system: differentiated PC-12 cells; assay: Viable cell number of differentiated PC-12 cells; type: cell-based; details: AICAR 0.125 to 1.0 mM, 96 h
Procedure: PC-12 cells were kindly provided by O. Meyuhas, Dept. of Biochem., Faculty of Medicine, Jerusalem. These cells were grown either in Dulbecco's modified Eagle's medium (DMEM) supplemented with 8% horse serum, 8% fetal bovine serum (FBS), glutamine, and gentamicin or with 1% horse serum, in the presence of nerve growth factor (NGF) (50 ng/ml), which causes the cells to differentiate. Murine leptin was provided by A. Gertler. AICAR was obtained from Toronto Research Chemicals (TRC). To confirm the cellular effects of AMPK in the hippocampus, in-vitro studies on PC-12 cells were also preformed.

[3] = test system: BrdU-immunoreactive cells in the dentate gyrus; assay: BrdU labelling of newly generated cells in the dentate gyrus of mice; type: in vivo; details: 25 nM AICAR once daily for 10 days vs saline
Procedure: In order to determine what is “low level activation” varying doses of the AMPK pathway activator may be administered to test animals in the final formulation intended to be used in humans, together with Brd-U. Animals are than sacrificed and the number of BrdU-immunoreactive cells in the dentate gyrus is determined in order to measure the generation rate of new cells. Amounts that are capable of increasing the number of newly generated cells are considers as “therapeutically effective amounts” when converted, according to known criteria, to physiologically corresponding amounts in humans.
The function of AMPK activation in the hippocampus was evaluated. […] Mice were treated with bromodeoxyuridine (BrdU) and either saline or 25 nM AICAR (low level stimulation) once daily for 10 days. […] Next, behavioral testing was performed using the eight-arm maze to determine whether there was a concomitant improvement in cognition. […] (FIG. 1C).

Bcl-2, Bax, PARP = assay: Hippocampal apoptosis proteins by RT-PCR and immunoblotting; type: in vivo, mice; details: AICAR treatment (1-2 mM), RT-PCR and immunoblotting
Procedure: Total hippocampal RNA was extracted using […] reagent according to the manufacturer's instructions and reverse transcribed. Primers specific for OBRlong were […] NO: 1) and […] NO: 6), for […] NO: 2), and […] NO: 7), for BAX […] NO: 3) and […] NO: 8) for Bcl-2 […] NO: 4) and […] NO: 9) and for actin […] NO: 5) and […] NO: 10). […] Total hippocampal Protein was extracted using […] reagent. Aliquots of the clarified lysates containing […] were denatured in Laemmli sample buffer (6% SDS 30%, glycerol, 0.02% bromophenol blue, 200 mM Tris-HCl (pH 6.8), and 250 mM-mercaptoethanol, at 95° C. for 5 min. The samples were resolved by SDS-PAGE (10% acrylamide), and blotted onto nitrocellulose membrane. Non-specific binding in a Western blot analysis was prevented by immersing the membranes in blocking buffer (5% nonfat dry milk in Tris-buffer saline-Tween 20 (TBS-T)), for 2 h at room temperature. The membranes were then exposed to the indicated antibodies diluted 1:1000 for 1 h at room temperature. AMPK, phospho-AMPK and PARP were obtained from Cell Signaling. Bax, bcl-2 and actin were from Santa Cruz Biotechnology Inc. (Santa Cruz, Calif.). The blots were rinsed in TBS-T and then incubated with horseradish peroxidase-conjugated goat anti-mouse antibodies 1:10,000 for 1 h at room temperature. Antibody-antigen complexes were visualized by detecting enhanced chemiluminescence with X-ray film.

PC-12 cells = assay: Annexin V FACS analysis of apoptosis in PC-12 cells; type: cell-based; details: AICAR, 48 h
Procedure: Cells were grown in 60-mm plates and treated with AICAR for 48 h. Apoptosis was evaluated using the Annexin V FITC Detection Kit (Oncogene Research Products, Cambridge Mass.). Briefly, both attached and floating cells were collected, washed with cold PBS, re-suspended at a density of 5×10^5/ml in 0.5 ml DMEM, stained for annexin V and analyzed by flow cytometry. The apoptotic ratio at 48 h, was also evaluated, by FACS analysis.

SMILES: NC(=O)c1ncn([C@@H]2O[C@H](CO)[C@@H](O)[C@H]2O)c1N [AICAR, 5-aminoimidazole-4-carboxamide ribonucleoside, reference compound]
- dopamine concentrations ([1]; p<0.05): elevating
- norepinephrine (NE) concentrations ([1]; p<0.05, 0.01 for the two dosages): decreased
- eight-arm maze performance (mice; 25 nM AICAR (low level stimulation) vs controls): performed significantly better than the controls
- eight-arm maze performance (mice; high dose AICAR (1-2 mM) vs ad libitum group, similar to DR to 40%): significant deterioration in maze performance
- number of viable cells [2]: dose-dependent reduction in the number of viable cells, reaching almost total after 96 h
- number of BrdU-immunoreactive cells in the dentate gyrus (generation rate of new cells) [3]: significantly increased
- Bax level (Bcl-2, Bax, PARP): up-regulation
- bcl-2 level (Bcl-2, Bax, PARP): reducing
- apoptotic cell death (Annexin V staining) (PC-12 cells): induces apoptotic cell death in a dose-dependent manner

Source: patent US9333240B2, “Compounds for improving nutritional status, cognition and survival” (YISSUM RESEARCH DEVELOPMENT COMPANY OF THE HEBREW …, priority 2005, dated 2016)
